From patent US11066446B2, “Cyclic peptide, affinity chromatography support, labeled antibody, antibody drug conjugate, and pharmaceutical preparation” (FUJIFILM Corporation, priority 2016, dated 2021)
Starred links: 1 amine or outer side, 2 acyl side, 3 side chain; linkers in the order of their positions; H or OH if unused. Positions of bridges follow the written chain, without caps; N, C: chain ends. Non-standard residues stand in square brackets, D forms with d. Primed or numbered codes have the meaning given here. No end group written: not given here. Bpg″ = L-bishomopropargylglycine residue, C#CCCC[C@H](N[*:1])C(=O)[*:2]; Lys(N3) = [N-]=[N+]=NCCCC[C@H](N)C(=O)O; Orn(N3) = [N-]=[N+]=NCCC[C@H](N)C(=O)O; Aha = [N-]=[N+]=NCC[C@H](N)C(=O)O; Bpg = L-bishomopropargylglycine; Hpra = C#CCC[C@H](N)C(=O)O; Pra = C#CC[C@H](N)C(=O)O

Experiments:
[1] = test system: human immunoglobulin G (IgG) antibodies; test: Relative binding activity to human IgG antibodies by surface plasmon resonance on immobilized sensor chip; conditions: for Relative binding activity: SPR (Biacore 3000, CM5 chip), 3,000 nM human IgG for 10 minutes at 25° C., relative to the cyclic peptide of Comparative Example 1 regarded as 1
Experimental: A commercially available CM5 (carboxymethyl dextran introduction-type, manufactured by GE Healthcare) sensor chip was set in Biacore 3000 (Biacore is a registered trademark) as a surface plasmon resonance device manufactured by GE Healthcare, a 4-(2-hydroxyethyl)-1-piperazineethanesulfonic acid (HEPES) buffer solution (20 mM HEPES-HCl, 150 mM NaCl, pH 7.4) for surface plasmon resonance (SPR) was stabilized at a flow rate of 10 μL/min, and 70 μL of an aqueous mixed solution of 0.2 M 1-(3-Dimethylaminopropyl)-3-ethylcarbodiimide (EDC) and […] of N-Hydroxysuccinimide (NHS) were injected thereinto. Thereafter, 100 μL of a sample solution of the cyclic peptide 1, which was diluted with a HEPES buffer solution at 0.2 g/L and treated with a polytetrafluoroethylene (PTFE) filter (manufactured by Advantec MFS, Inc.) having a diameter of 0.20 μm, was supplied to the sensor chip. Then, a blocking treatment was then performed on the sample solution by using an aqueous ethanolamine solution, and the sensor chip was washed with an aqueous sodium hydroxide solution, thereby performing immobilization. Likewise, 70 μL of an aqueous mixed solution of 0.2 M EDC and 0.04 M NHS was added to the same sensor chip without immobilizing the sample in another flow channel of the sensor chip, and then the blocking treatment and the washing treatment were performed. Hereinafter, the obtained immobilized sensor chip will be referred to as “immobilized sensor chip A”.
At 25° C., 3,000 nM of human immunoglobulin G (IgG) antibodies were added for 10 minutes to the immobilized sensor chip A prepared in (2) described above. Then, the antibody binding amount in the flow channel in which the cyclic peptide was immobilized immediately after the addition and in the flow channel in which the cyclic peptide was not immobilized was measured. From the difference in the antibody binding amount between the flow channel in which the cyclic peptide was immobilized and the flow channel in which the cyclic peptide was not immobilized and the amount of the immobilized cyclic peptide, the activity of the cyclic peptide was calculated. Furthermore, by regarding the activity of a cyclic peptide 5 in Comparative Example 1 as 1, the relative binding activity with respect to the human IgG antibodies was calculated.

[2] = Chemical resistance: rate of change in antibody binding amount of immobilized support before and after alkali treatment; type: physicochemical; conditions: for Chemical resistance (rate of change in the binding amount): peptide-immobilized HiTrap support, human IgG binding amount at 10% leak, before and after 0.05 M aqueous NaOH for 6 hours at 25° C.; for chemical resistance (in words): summary wording of the chemical resistance evaluation
Experimental: 1 mL of HiTrap NHS-activated HP Columns (coupling columns for ligand immobilization, manufactured by GE Healthcare) (HITRAP is a registered trademark) was reacted with 1 mL of 10 mg/mL cyclic peptide solution, which was prepared by dissolving the cyclic peptide 1 in an immobilization buffer (10% DMSO in 200 mM NaHCO3, 500 mM NaCl, pH 8.3), for 1 hour at 25° C. The reaction product was blocked by an aqueous ethanolamine solution and washed, thereby obtaining a cyclic peptide 1-immobilized support. Hereinafter, the obtained immobilized support will be referred to as “immobilized support A”.
The immobilized support A prepared in (4) described above was connected to a chromatography system AKTA avant 25 (manufactured by GE Healthcare) (AKTAAVANT is a registered trademark), and the antibody binding amount was measured. The columns were equilibrated using an equilibration solution (20 mM phosphoric acid buffer, 150 mM NaCl, pH 7.4), and then 20 mL of a 5 mg/mL human IgG antibody standard buffer solution (20 mM phosphoric acid buffer, 150 mM NaCl, pH 7.4) was injected thereinto at a flow rate of 0.21 mL/min. Thereafter, the columns were washed with 5 mL of a postloading wash solution (20 mM phosphoric acid buffer, 150 mM NaCl, pH 7.4) caused to flow at the same flow rate and then washed with 5 mL of a pre-elution wash solution (20 mM phosphoric acid buffer, 1 M NaCl, pH 7.4) at the same flow rate. Then, 5 mL of an elution solution (100 mM citric acid buffer, pH 3.2) was caused to flow at the same flow rate. Subsequently, 5 mL of a cleaning in place (CIP) solution (0.1 M sodium hydroxide) was caused to flow at the same flow rate, and then 5 mL of a reequilibration solution (20 mM phosphoric acid buffer, 150 mM NaCl, pH 7.4) was caused to flow at the same flow rate. At this time, by using an immunoglobulin G (IgG) elution peak obtained by monitoring absorbance at 280 nm, the amount of antibodies binding to the support until 10% of the antibody stock solution leaked out of the support was measured as the antibody binding amount. Then, the immobilized support A was filled with a 0.05 M aqueous NaOH solution for 6 hours at 25° C. and left to stand, the antibody binding amount of the support was then measured in the same manner, and a rate of change in the binding amount was calculated from the antibody binding amount before and after the alkali treatment.

| Substance | Relative binding activity [1] | Chemical resistance (rate of change in the binding amount) [2] | Relative binding activity ([1]; listed as Example 14) | chemical resistance (in words) [2] | antibody binding properties (in words) ([1]; summary wording of the relative binding activity evaluation, listed as Comparative Example 2) | chemical resistance (in words) ([2]; listed as Comparative Example 2) |
| --- | --- | --- | --- | --- | --- | --- |
| Asp-[Abu(N3)]-Ala-Tyr-His-Arg-Gly-Glu-Leu-Val-Trp-[Pra]-Thr-Lys-Lys (D[Aha]AYHRGELVW[Pra]TKK; triazole 2-12) [Cyclic peptide 6, [Abu(N3)] and [Pra] cross-linked through a triazole bond] | B (The relative binding activity was higher than 400% and equal to or lower than 800% of the binding activity of the cyclic peptide 5) | B (The rate of change in the binding amount was higher than 80% and equal to or lower than 90%) | – | – | – | – |
| Asp-[Abu(N3)]-Ala-Tyr-His-Leu-Gly-Glu-Leu-Val-Trp-[Bpg]-Thr-Lys-Lys (D[Aha]AYHLGELVW[Bpg]TKK; triazole 2-12) [Cyclic peptide 13, [Abu(N3)] and [Bpg] cross-linked through a triazole bond] | B (The relative binding activity was higher than 400% and equal to or lower than 800% of the binding activity of the cyclic peptide 5) | A (The rate of change in the binding amount was higher than 90%) | – | – | – | – |
| Asp-[Abu(N3)]-Ala-Tyr-His-Leu-Gly-Glu-Leu-Val-Trp-[Hpg]-Thr-Lys-Lys (D[Aha]AYHLGELVW[Hpra]TKK; triazole 2-12) [Cyclic peptide 11, [Abu(N3)] and [Hpg] cross-linked through a triazole bond] | A (The relative binding activity was higher than 800% of the binding activity of the cyclic peptide 5) | A (The rate of change in the binding amount was higher than 90%) | – | – | – | – |
| Asp-[Abu(N3)]-Ala-Tyr-His-Leu-Gly-Glu-Leu-Val-Trp-[Pra]-Thr-Lys-Lys (D[Aha]AYHLGELVW[Pra]TKK; triazole 2-12) [Cyclic peptide 7, [Abu(N3)] and [Pra] cross-linked through a triazole bond] | B (The relative binding activity was higher than 400% and equal to or lower than 800% of the binding activity of the cyclic peptide 5) | A (The rate of change in the binding amount was higher than 90%) | – | – | – | – |
| Asp-[Bpg]-Ala-Tyr-His-Leu-Gly-Glu-Leu-Val-Trp-[Lys(N3)]-Thr-Lys-Lys (D[Bpg]AYHLGELVW[Lys(N3)]TKK; triazole 2-12) [Cyclic peptide 3, [Bpg] and [Lys(N3)] cross-linked through a triazole bond] | A (The relative binding activity was higher than 800% of the binding activity of the cyclic peptide 5) | A (The rate of change in the binding amount was higher than 90%) | – | – | – | – |
| Asp-[Bpg]-Ala-Tyr-His-Leu-Gly-Glu-Leu-Val-Trp-[Nva(N3)]-Thr-Lys-Lys (D[Bpg″]AYHLGELVW[Orn(N3)]TKK; triazole 2-12; also: Xaa2 derived from gamma-azido-L-homoalanine) [Cyclic peptide 14, [Bpg] and [Nva(N3)] cross-linked through a triazole bond] | B (The relative binding activity was higher than 400% and equal to or lower than 800% of the binding activity of the cyclic peptide 5) | A (The rate of change in the binding amount was higher than 90%) | C or a higher grade | – | – | – |
| Asp-[Cys]-Ala-Tyr-His-Arg-Gly-Glu-Leu-Val-Trp-[Cys]-Thr-Lys-Lys (DCAYHRGELVWCTKK; disulfide 2-12) [Cyclic peptide 19, two [Cys]'s cross-linked through a disulfide bond; comparative, reference compound] | A (The relative binding activity was higher than 800% of the binding activity of the cyclic peptide 5) | E (The rate of change in the binding amount was equal to or lower than 50%) | – | poor | – | – |
| Asp-[Glu]-Ala-Tyr-His-Leu-Gly-Glu-Leu-Val-Trp-[Lys]-Thr-Lys-Lys [Cyclic peptide 18, reference compound] | E (The relative binding activity was equal to or lower than 100% of the binding activity of the cyclic peptide 5) | B (The rate of change in the binding amount was higher than 80% and equal to or lower than 90%) | – | – | excellent and poor | poor and sufficient |
| Asp-[Hpg]-Ala-Tyr-His-Leu-Gly-Glu-Leu-Val-Trp-[Abu(N3)]-Thr-Lys-Lys (D[Hpra]AYHLGELVW[Aha]TKK; triazole 2-12) [Cyclic peptide 12, [Hpg] and [Abu(N3)] cross-linked through a triazole bond] | A (The relative binding activity was higher than 800% of the binding activity of the cyclic peptide 5) | A (The rate of change in the binding amount was higher than 90%) | – | – | – | – |
| Asp-[Hpg]-Ala-Tyr-His-Leu-Gly-Glu-Leu-Val-Trp-[Nva(N3)]-Thr-Lys-Lys (D[Hpra]AYHLGELVW[Orn(N3)]TKK; triazole 2-12) [Cyclic peptide 15, [Hpg] and [Nva(N3)] cross-linked through a triazole bond] | B (The relative binding activity was higher than 400% and equal to or lower than 800% of the binding activity of the cyclic peptide 5) | A (The rate of change in the binding amount was higher than 90%) | – | – | – | – |
| Asp-[Lys(N3)]-Ala-Tyr-His-Leu-Gly-Glu-Leu-Val-Trp-[Hpg]-Thr-Lys-Lys (D[Lys(N3)]AYHLGELVW[Hpra]TKK; triazole 2-12) [Cyclic peptide 8, [Lys(N3)] and [Hpg] cross-linked through a triazole bond] | B (The relative binding activity was higher than 400% and equal to or lower than 800% of the binding activity of the cyclic peptide 5) | A (The rate of change in the binding amount was higher than 90%) | – | – | – | – |
| Asp-[Lys(N3)]-Ala-Tyr-His-Leu-Gly-Glu-Leu-Val-Trp-[Pra]-Thr-Lys-Lys (D[Lys(N3)]AYHLGELVW[Pra]TKK; triazole 2-12) [Cyclic peptide 10, [Lys(N3)] and [Pra] cross-linked through a triazole bond] | C (The relative binding activity was higher than 200% and equal to or lower than 400% of the binding activity of the cyclic peptide 5) | A (The rate of change in the binding amount was higher than 90%) | – | – | – | – |
